{
  "source": "patent US10287301B2",
  "about": "(Achillion Pharmaceuticals, Inc., priority 2015, dated 2019)",
  "biological_target": "Human Factor D (Homo sapiens (Human), UniProt P00746)",
  "sequence (P00746 26-253)": "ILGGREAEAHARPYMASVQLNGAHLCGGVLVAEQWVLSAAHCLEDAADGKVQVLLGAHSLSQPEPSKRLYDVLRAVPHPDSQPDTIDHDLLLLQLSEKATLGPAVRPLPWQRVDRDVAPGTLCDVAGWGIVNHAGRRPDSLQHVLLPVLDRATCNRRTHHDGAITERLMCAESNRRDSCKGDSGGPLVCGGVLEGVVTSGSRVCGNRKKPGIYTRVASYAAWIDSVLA",
  "experiment": "Human Factor D Assay",
  "assay_type": "biochemical",
  "procedure,_shortened": "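First, compound at various concentrations is mixed with 80 nM (final) human serum Factor D in 50 mM Tris, 1M NaCl, pH 7.5 for 5 min at room temperature.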",
  "key": {"[1]": {"details": "Human Factor D, Table 3, read-out: IC50"}, "[2]": {"details": "Table 3, Human Factor D 80 nM, substrate Z-L-Lys-SBzl, read-out: IC50 (Stars)"}, "[3]": {"details": "Human Factor D 80 nM, substrate Z-L-Lys-SBzl, read-out: IC50"}, "[4]": {"details": "Human Factor D assay of Example 8, Table 2, read-out: IC50"}},
  "note": "Read-outs that look alike come from different tables or passages of the source.",
  "data": [
    {"smiles": "CC(=O)c1nn(CC(=O)N2C[C@H](F)C[C@H]2C(=O)Nc2cccc(OC(F)F)n2)c2ccc(-c3cnc(C)nc3)cc12", "note": "[Compound 582, (2S,4R)-1-(2-(3-Acetyl-5-(2-methylpyrimidin-5-yl)-1H-indazol-1-yl)acetyl)-N-(6-(difluoromethoxy)pyridin-2-yl)-4-fluoropyrrolidine-2-carboxamide]", "values": [
      {"measurement": "IC50", "setting": "[1]", "value": "< 1000", "unit": "nM"}
    ]},
    {"smiles": "CC(=O)c1nn(CC(=O)N2[C@@H]3C[C@@H]3C[C@H]2C(=O)Nc2cncc(Cl)n2)c2ccc(-c3cnc(C)nc3)cc12", "note": "[Compound 375, (1R,3S,5R)-2-(2-(3-Acetyl-5-(2-methylpyrimidin-5-yl)-1H-indazol-1-yl)acetyl)-N-(6-chloropyrazin-2-yl)-2-azabicyclo[3.1.0]hexane-3-carboxamide]", "values": [
      {"measurement": "IC50", "setting": "[2]", "value": "< 1000", "unit": "nM"}
    ]},
    {"smiles": "COCc1ccc(Br)nc1NC(=O)[C@@H]1C[C@@H](F)CN1C(=O)Cn1nc(C(C)=O)c2cc(-c3cnc(C)nc3)ccc21", "note": "[Compound 606, (2S,4R)-1-(2-(3-Acetyl-5-(2-methylpyrimidin-5-yl)-1H-indazol-1-yl)acetyl)-N-(6-bromo-3-(methoxymethyl)pyridin-2-yl)-4-fluoropyrrolidine-2-carboxamide]", "values": [
      {"measurement": "IC50", "setting": "[1]", "value": "< 1000", "unit": "nM"}
    ]},
    {"smiles": "CC(=O)c1cn(CC(=O)N2[C@@H]3C[C@@H]3C[C@H]2C(=O)Nc2cccc(Br)n2)c2ccc(-c3cnc(C)nc3)cc12", "note": "[Compound 132, (1R,3S,5R)-2-(2-(3-acetyl-5-(2-methylpyrimidin-5-yl)-1H-indol-1-yl)acetyl)-N-(6-bromopyridin-2-yl)-2-azabicyclo[3.1.0] hexane-3-carboxamide]", "values": [
      {"measurement": "IC50", "setting": "[3]", "value": "< 1000", "unit": "nM"}
    ]},
    {"smiles": "CC(=O)c1nn(CC(=O)N2[C@H](C(=O)NCC(F)=C(C)C)C[C@@]3(C)C[C@@H]23)c2ccc(-c3cnc(C)nc3)cc12", "note": "[Compound 621, (1R,3S,5R)-2-(2-(3-acetyl-5-(2-methylpyrimidin-5-yl)-1H-indazol-1-yl)acetyl)-N-(2-fluoro-3-methylbut-2-en-1-yl)-5-methyl-2-azabicyclo[3.1.0] hexane-3-carboxamide]", "values": [
      {"measurement": "IC50", "setting": "[1]", "value": "< 1000", "unit": "nM"}
    ]},
    {"smiles": "CC(=O)c1nn(CC(=O)N2C[C@H](F)C[C@H]2C(=O)Nc2cccc(Br)n2)c2ccc(-c3cnc4cc(C(C)(C)C)nn4c3)cc12", "note": "[Compound 682, (2S,4R)-1-(2-(3-Acetyl-5-(2-(tert-butyl)pyrazolo[1,5-a]pyrimidin-6-yl)-1H-indazol-1-yl)acetyl)-N-(6-bromopyridin-2-yl)-4-fluoropyrrolidine-2-carboxamide]", "values": [
      {"measurement": "IC50", "setting": "[1]", "value": "< 1000", "unit": "nM"}
    ]},
    {"smiles": "CC(=O)Nc1ncc(-c2ccc3c(c2)c(C(C)=O)cn3CC(=O)N2C[C@H](F)C[C@H]2C(=O)Nc2cccc(Br)n2)cn1", "note": "[Compound 118, (2S,4R)-1-(2-(5-(2-acetamidopyrimidin-5-yl)-3-acetyl-1H-indol-1-yl)acetyl)-N-(6-bromopyridin-2-yl)-4-fluoropyrrolidine-2-carboxamide]", "values": [
      {"measurement": "IC50", "setting": "[3]", "value": "< 1000", "unit": "nM"}
    ]},
    {"smiles": "CC(=O)c1nn(CC(=O)N2C[C@H](F)C[C@H]2C(=O)Nc2cccc(OC(F)(F)F)n2)c2ccc(-c3cnc4cc(C5CC5)nn4c3)cc12", "note": "[Compound 672, (2S,4R)-1-(2-(3-Acetyl-5-(2-cyclopropylpyrazolo[1,5-a]pyrimidin-6-yl)-1H-indazol-1-yl)acetyl)-4-fluoro-N-(6-(trifluoromethoxy)pyridin-2-yl)pyrrolidine-2-carboxamide]", "values": [
      {"measurement": "IC50", "setting": "[1]", "value": "< 1000", "unit": "nM"}
    ]},
    {"smiles": "COCCOCCNC(=O)c1ncc(-c2ccc3c(c2)c(C(C)=O)cn3CC(=O)N2C[C@H](F)C[C@H]2C(=O)Nc2cccc(-c3ccccc3Cl)c2F)cn1", "note": "[Compound 212, 5-(3-acetyl-1-(2-((2S,4R)-2-(2′-chloro-2-fluorobiphenyl-3-ylcarbamoyl)-4-fluoropyrrolidin-1-yl)-2-oxoethyl)-1H-indol-5-yl)-N-(2-(2-methoxyethoxy)ethyl)pyrimidine-2-carboxamide]", "values": [
      {"measurement": "IC50", "setting": "[4]", "value": "< 1000", "unit": "nM"}
    ]},
    {"smiles": "CC(=O)c1nn(CC(=O)N2C(C(=O)Nc3cccc(Br)n3)C[C@]3(CN(C)C)C[C@H]23)c2ccc(-c3cnc(C)nc3)cc12", "note": "(stereo in doubt) [Compound 578, (1S,3S,5S)-2-(2-(3-acetyl-5-(2-methylpyrimidin-5-yl)-1H-indazol-1-yl)acetyl)-N-(6-bromopyridin-2-yl)-5-((dimethylamino)methyl)-2-azabicyclo[3.1.0]hexane-3-carboxamide]", "values": [
      {"measurement": "IC50", "setting": "[1]", "value": "< 1000", "unit": "nM"}
    ]},
    {"smiles": "CC(=O)c1nn(CC(=O)N2[C@@H]3C[C@@H]3C[C@H]2C(=O)Nc2nc(Br)ccc2C2CC2)c2ccc(-c3cnc(C)nc3)cc12", "note": "[Compound 603, (1R,3S,5R)-2-(2-(3-Acetyl-5-(2-methylpyrimidin-5-yl)-1H-indazol-1-yl)acetyl)-N-(6-bromo-3-cyclopropyl-pyridin-2-yl)-2-azabicyclo[3.1.0]hexane-3-carboxamide]", "values": [
      {"measurement": "IC50", "setting": "[1]", "value": "< 1000", "unit": "nM"}
    ]},
    {"smiles": "Cc1cc(NC(=O)[C@@H]2C[C@@H](F)CN2C(=O)Cn2nc(C(N)=O)c3cc(-c4ccnnc4)ccc32)n2nc(C(F)(F)F)nc2n1", "note": "[Compound 113, 1-(2-((2S,4R)-4-fluoro-2-(5-methyl-2-(trifluoromethyl)-[1,2,4]triazolo[1,5-a]pyrimidin-7-ylcarbamoyl)pyrrolidin-1-yl)-2-oxoethyl)-5-(pyridazin-4-yl)-1H-indazole-3-carboxamide]", "values": [
      {"measurement": "IC50", "setting": "[3]", "value": "> 10000", "unit": "nM"}
    ]},
    {"smiles": "COc1ncc(-c2ccc3c(c2)c(C(C)=O)nn3CC(=O)N2[C@H](C(=O)Nc3nc(Br)ccc3C)C[C@@]3(C)C[C@@H]23)cn1", "note": "[Compound 632, (1R,3S,5R)-2-(2-(3-Acetyl-5-(2-methoxypyrimidin-5-yl)-1H-indazol-1-yl)acetyl)-N-(6-bromo-3-methylpyridin-2-yl)-5-methyl-2-azabicyclo[3.1.0]hexane-3-carboxamide]", "values": [
      {"measurement": "IC50", "setting": "[1]", "value": "< 1000", "unit": "nM"}
    ]},
    {"smiles": "CC(=O)c1cn(CC(=O)N2C[C@H](F)C[C@H]2C(=O)Nc2noc3cc(C(F)(F)F)ccc23)c2ccc(-c3ccnnc3)cc12", "note": "[Compound 42, (2S,4R)-1-(2-(3-acetyl-5-(pyridazin-4-yl)-1H-indol-1-yl)acetyl)-4-fluoro-N-(6-(trifluoromethyl)benzo[d]isoxazol-3-yl)pyrrolidine-2-carboxamide]", "values": [
      {"measurement": "IC50", "setting": "[3]", "value": "> 10000", "unit": "nM"}
    ]},
    {"smiles": "CC(=O)c1cn(CC(=O)N2C[C@H](F)C[C@H]2C(=O)Nc2cccc(-c3ccccc3Cl)c2Cl)c2ccc(-c3cnc(C)nc3)cc12", "note": "[Compound 149, (2S,4R)-1-(2-(3-acetyl-5-(2-methylpyrimidin-5-yl)-1H-indol-1-yl)acetyl)-N-(2,2′-dichlorobiphenyl-3-yl)-4-fluoropyrrolidine-2-carboxamide]", "values": [
      {"measurement": "IC50", "value": "< 1000", "unit": "nM"}
    ]},
    {"smiles": "CC(=O)c1nn(CC(=O)N2C[C@H](F)C[C@H]2C(=O)Nc2cccc(Br)n2)c2ccc(-c3cnc(C)[n+]([O-])c3)cc12", "note": "[Compound 742, 5-(3-Acetyl-1-(2-((2S,4R)-2-((6-bromopyridin-2-yl)carbamoyl)-4-fluoropyrrolidin-1-yl)-2-oxoethyl)-1H-indazol-5-yl)-2-methylpyrimidine 1-oxide]", "values": [
      {"measurement": "IC50", "setting": "[1]", "value": "< 1000", "unit": "nM"}
    ]},
    {"smiles": "CC(=O)c1nn(CC(=O)N2C[Si](C)(C)C[C@H]2C(=O)Nc2cccc(Br)n2)c2ccc(-c3cnc(C)nc3)cc12", "note": "[Compound 514, (R)-1-(2-(3-acetyl-5-(2-Methylpyrimidin-5-yl)-1H-indazol-1-yl)acetyl)-N-(6-bromopyridin-2-yl)-3,3-dimethyl-1,3-azasilolidine-5-carboxamide]", "values": [
      {"measurement": "IC50", "value": "1000 to 10000", "unit": "nM"}
    ]},
    {"smiles": "CCc1cn(CC(=O)N2NCCC2C(=O)Nc2cccc(-c3ccccc3Cl)c2F)c2ccc(-c3cnc(C)nc3)cc12", "note": "(stereo not drawn) [Compound 267, N-(2′-chloro-2-fluorobiphenyl-3-yl)-2-(2-(3-ethyl-5-(2-methylpyrimidin-5-yl)-1H-indol-1-yl)acetyl)pyrazolidine-3-carboxamide]", "values": [
      {"measurement": "IC50", "value": "1000 to 10000", "unit": "nM"}
    ]},
    {"smiles": "CC(=O)c1nn(CC(=O)N2C[C@H](F)[C@@H](O)[C@H]2C(=O)Nc2cccc(Br)n2)c2ccc(-c3cnc(C)nc3)cc12", "note": "[Compound 346, (2S,3S,4S)-1-(2-(3-Acetyl-5-(2-methylpyrimidin-5-yl)-1H-indazol-1-yl)acetyl)-N-(6-bromopyridin-2-yl)-4-fluoro-3-hydroxypyrrolidine-2-carboxamide]", "values": [
      {"measurement": "IC50", "setting": "[2]", "value": "< 1000", "unit": "nM"}
    ]},
    {"smiles": "CC(=O)c1nn(CC(=O)N2C[C@H](F)C[C@H]2C(=O)Nc2cccc(OC(F)(F)F)c2F)c2ccc(-c3cnc(C)nc3)cc12", "note": "[Compound 220, (2S,4R)-1-(2-(3-acetyl-5-(2-methylpyrimidin-5-yl)-1H-indazol-1-yl)acetyl)-4-fluoro-N-(2-fluoro-3-(trifluoromethoxy)phenyl)pyrrolidine-2-carboxamide]", "values": [
      {"measurement": "IC50", "setting": "[4]", "value": "< 1000", "unit": "nM"}
    ]},
    {"smiles": "CC(=O)c1nn(CC(=O)N2C[C@H](F)C[C@H]2C(=O)Nc2cccc(-c3ccccc3Cl)c2F)c2ccc(-c3cnc(C)nc3)cc12", "note": "[Compound 163, (2S,4R)-1-(2-(3-acetyl-5-(2-methylpyrimidin-5-yl)-1H-indazol-1-yl)acetyl)-N-(2′-chloro-2-fluorobiphenyl-3-yl)-4-fluoropyrrolidine-2-carboxamide]", "values": [
      {"measurement": "IC50", "setting": "[3]", "value": "< 1000", "unit": "nM"}
    ]},
    {"smiles": "CC(=O)c1nn(CC(=O)N2C[C@H](F)C[C@H]2C(=O)Nc2cncc(C(F)(F)F)n2)c2ccc(-c3cnc(C)nc3)cc12", "note": "[Compound 581, (2S,4R)-1-(2-(3-Acetyl-5-(2-methylpyrimidin-5-yl)-1H-indazol-1-yl)acetyl)-4-fluoro-N-(6-(trifluoromethyl)pyrazin-2-yl)pyrrolidine-2-carboxamide]", "values": [
      {"measurement": "IC50", "setting": "[1]", "value": "< 1000", "unit": "nM"}
    ]},
    {"smiles": "CCN1Cc2ccc(NC(=O)[C@@H]3C[C@@H](F)CN3C(=O)Cn3nc(C(N)=O)c4cc(-c5ccnnc5)ccc43)cc2C1=O", "note": "[Compound 48, 1-(2-((2S,4R)-2-(2-ethyl-3-oxoisoindolin-5-ylcarbamoyl)-4-fluoropyrrolidin-1-yl)-2-oxoethyl)-5-(pyridazin-4-yl)-1H-indazole-3-carboxamide]", "values": [
      {"measurement": "IC50", "setting": "[3]", "value": "> 10000", "unit": "nM"}
    ]},
    {"smiles": "CC(=O)c1nn(CC(=O)N2[C@H](C(=O)N[C@H](C)C(F)=C(C)C)C[C@@]3(C)C[C@@H]23)c2ccc(-c3cnc(C)nc3)cc12", "note": "[Compound 623, (1R,3S,5R)-2-(2-(3-acetyl-5-(2-methylpyrimidin-5-yl)-1H-indazol-1-yl)acetyl)-N-((R)-3-fluoro-4-methylpent-3-en-2-yl)-5-methyl-2-azabicyclo[3.1.0] hexane-3-carboxamide]", "values": [
      {"measurement": "IC50", "setting": "[1]", "value": "< 1000", "unit": "nM"}
    ]}
  ]
}
